From the NIST ThermoML archive (doi:10.1021/je020131a)
Numbers after ± are expanded uncertainties.

Conditions: Liquid; for viscosity: 101.3 kPa, Falling or rolling sphere viscometry; for mass density: 101.33 kPa, Vibrating tube method

viscosity (293.15 K) [mPa·s] | viscosity (298.15 K) [mPa·s] | mass density (298.15 K) [kg/m3] | viscosity (303.15 K) [mPa·s] | viscosity (313.15 K) [mPa·s] | SMILES
0.545 ± 0.021 | 0.513 ± 0.021 | 698.5 ± 0.4 | 0.484 ± 0.02 | 0.434 ± 0.02 | CCCCCCCC [octane]
0.976 ± 0.021 | 0.894 ± 0.021 | 773.8 ± 0.3 | 0.813 ± 0.021 | 0.697 ± 0.021 | C1CCCCC1 [cyclohexane]
